The values below come from ChEMBL document CHEMBL5390314, “Repurposing Azoles to Resolve Serotogenic Toxicity Associated with Linezolid to Combat Multidrug-Resistant Tuberculosis” (ACS Med Chem Lett, 2023).

SMILES strings stand for the structures. In brackets after ≈: the same amount, converted by molar mass.

Assay [1] has as its system Mycobacterium tuberculosis. Briefly: Anti-mycobacterial activity against Mycobacterium tuberculosis H37Rv assessed as bacterial growth inhibition incubated for 7 days by microplate Alamar blue assay. Format: functional. The conditions noted are these: 168 h, time 7 day. For orientation: Alamar Blue is a resazurin reagent that responds to reducing activity.
The target of assay [2] is T1, Amine oxidase [flavin-containing] A (Homo sapiens, UniProt P21397).
T1 sequence (P21397 whole entry): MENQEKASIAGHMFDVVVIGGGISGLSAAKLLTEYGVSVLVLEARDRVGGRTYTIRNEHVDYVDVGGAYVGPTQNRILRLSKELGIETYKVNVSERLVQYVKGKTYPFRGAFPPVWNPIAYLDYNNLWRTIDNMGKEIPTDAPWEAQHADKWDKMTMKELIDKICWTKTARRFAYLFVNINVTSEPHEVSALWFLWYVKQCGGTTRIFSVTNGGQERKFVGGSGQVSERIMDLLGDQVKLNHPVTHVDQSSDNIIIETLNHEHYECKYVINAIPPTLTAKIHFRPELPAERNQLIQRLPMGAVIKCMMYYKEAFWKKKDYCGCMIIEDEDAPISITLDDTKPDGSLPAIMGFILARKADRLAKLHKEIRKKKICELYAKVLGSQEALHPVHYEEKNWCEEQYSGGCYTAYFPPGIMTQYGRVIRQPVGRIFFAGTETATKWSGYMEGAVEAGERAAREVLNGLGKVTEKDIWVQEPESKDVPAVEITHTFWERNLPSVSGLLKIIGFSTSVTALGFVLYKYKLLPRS
Briefly: Inhibition of recombinant MAO-A (unknown origin) using kynuramine as a substrate by MAO assay. Format: toxicity.

Assay [3] has as its system Mycobacterium tuberculosis. The assay can be described thus: Anti-mycobacterial activity against Mycobacterium tuberculosis clinical isolate assessed as bacterial growth inhibition incubated for 7 days by microplate Alamar blue assay. Format: functional. The conditions noted are these: 168 h, time 7 day.
For assay [4], the target named is T2, Amine oxidase [flavin-containing] B (Homo sapiens, UniProt P27338).
T2 sequence (P27338 whole entry): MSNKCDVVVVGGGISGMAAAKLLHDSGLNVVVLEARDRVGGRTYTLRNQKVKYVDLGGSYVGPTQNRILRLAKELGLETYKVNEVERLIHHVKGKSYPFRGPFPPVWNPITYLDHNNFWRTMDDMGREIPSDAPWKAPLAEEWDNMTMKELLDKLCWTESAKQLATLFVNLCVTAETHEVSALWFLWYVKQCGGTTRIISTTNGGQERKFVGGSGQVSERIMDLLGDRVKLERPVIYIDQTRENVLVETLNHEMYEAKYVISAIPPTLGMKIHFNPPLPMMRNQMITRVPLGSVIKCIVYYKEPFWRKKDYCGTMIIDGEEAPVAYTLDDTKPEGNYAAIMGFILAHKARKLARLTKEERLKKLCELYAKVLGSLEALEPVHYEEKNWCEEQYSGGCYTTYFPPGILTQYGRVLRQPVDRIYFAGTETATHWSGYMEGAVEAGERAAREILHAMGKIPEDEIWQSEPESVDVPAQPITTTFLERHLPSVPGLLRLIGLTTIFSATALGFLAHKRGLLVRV
The assay can be described thus: Inhibition of recombinant MAO-B (unknown origin) using benzylamine as a substrate by MAO assay. Format: toxicity.

For orientation: MIC means the least concentration at which growth counts as inhibited. As a reminder, the IC50 is the concentration that gives 50% inhibition. By MIC50 is commonly meant the lowest concentration that inhibits either 50% of growth or 50% of the strains tested, depending on the study. For orientation: MIC90 means the lowest concentration that inhibits either 90% of growth or 90% of the strains tested, depending on the study. As to `Clc1ccccc1C(c1ccccc1)(c1ccccc1)n1ccnc1` [CLOTRIMAZOLE], the MIC in assay [1] stood at 2.26 µM (≈ 0.779 µg/mL). The IC50 in assay [2] is 25.4 µM. In addition, in assay [3], the MIC50 was 0.87 µM (≈ 0.3 µg/mL) and the MIC90 was determined as 1.56 µM (≈ 0.538 µg/mL). The IC50 in assay [4] came out at 31.2 µM.
With `NNC(=O)c1ccncc1` [ISONIAZID], in assay [3], the MIC50 is under 0.2 µM and the MIC90 was under 0.2 µM.
`CCC(C)n1ncn(-c2ccc(N3CCN(c4ccc(OCC5COC(Cn6cncn6)(c6ccc(Cl)cc6Cl)O5)cc4)CC3)cc2)c1=O` (stereo unspecified) [ITRACONAZOLE]: the MIC in assay [1] was over 35 µM.
Consider `CC(=O)NC[C@H]1CN(c2ccc(N3CCOCC3)c(F)c2)C(=O)O1` [LINEZOLID], for which, in assay [1], the MIC was determined as 2.31 µM (≈ 0.779 µg/mL). Moreover, the IC50 in assay [2] was determined as 6.52 µM. In assay [3], the MIC50 worked out at 0.34 µM (≈ 0.115 µg/mL) and the MIC90 came to 0.78 µM (≈ 0.263 µg/mL). In assay [4], the concentration for half-maximal inhibition (IC50) is 0.619 µM.
The matching figures for `Clc1ccc(COC(Cn2ccnc2)c2ccc(Cl)cc2Cl)c(Cl)c1` (stereo unspecified) [MICONAZOLE]: 3.74 µM (≈ 1.56 µg/mL), 37.8 µM, 1 µM (≈ 0.416 µg/mL), 1.56 µM (≈ 0.649 µg/mL) and 13.2 µM.
`CC[C@@H]([C@H](C)O)n1ncn(-c2ccc(N3CCN(c4ccc(OC[C@@H]5CO[C@@](Cn6cncn6)(c6ccc(F)cc6F)C5)cc4)CC3)cc2)c1=O` [POSACONAZOLE]: the MIC in assay [1] is over 35 µM.
`CO[C@H]1/C=C/O[C@@]2(C)Oc3c(C)c(O)c4c(O)c(c(/C=N/N5CCN(C)CC5)c(O)c4c3C2=O)NC(=O)/C(C)=C\C=C\[C@H](C)[C@H](O)[C@@H](C)[C@@H](O)[C@@H](C)[C@H](OC(C)=O)[C@@H]1C` [RIFAMPIN]: in assay [3], the MIC50 was under 0.04 µM and the MIC90 is under 0.04 µM.
